Experimental data as given in patent US20180289692A1, “TLR MODULATORS AND METHODS OF USE” (CELGENE CORPORATION, priority 2015, published 2018).
Oligonucleotides are written 5' to 3', each unit as a sugar letter and its base; * is a phosphorothioate linkage, no mark a phosphodiester; rarer units and linkages stand in square brackets, end groups in braces. Plain capitals give the bases only. d = 2'-deoxy (DNA)

Columns and labels:
NOD2 = target: T1, NOD2 (Homo sapiens, UniProt Q9HC29); conditions: HEK-Blue NOD2 cells; cited from earlier work
T1 construct: host or cells: HEK-Blue NOD2 cells
T1 sequence (Q9HC29 whole entry, species assumed): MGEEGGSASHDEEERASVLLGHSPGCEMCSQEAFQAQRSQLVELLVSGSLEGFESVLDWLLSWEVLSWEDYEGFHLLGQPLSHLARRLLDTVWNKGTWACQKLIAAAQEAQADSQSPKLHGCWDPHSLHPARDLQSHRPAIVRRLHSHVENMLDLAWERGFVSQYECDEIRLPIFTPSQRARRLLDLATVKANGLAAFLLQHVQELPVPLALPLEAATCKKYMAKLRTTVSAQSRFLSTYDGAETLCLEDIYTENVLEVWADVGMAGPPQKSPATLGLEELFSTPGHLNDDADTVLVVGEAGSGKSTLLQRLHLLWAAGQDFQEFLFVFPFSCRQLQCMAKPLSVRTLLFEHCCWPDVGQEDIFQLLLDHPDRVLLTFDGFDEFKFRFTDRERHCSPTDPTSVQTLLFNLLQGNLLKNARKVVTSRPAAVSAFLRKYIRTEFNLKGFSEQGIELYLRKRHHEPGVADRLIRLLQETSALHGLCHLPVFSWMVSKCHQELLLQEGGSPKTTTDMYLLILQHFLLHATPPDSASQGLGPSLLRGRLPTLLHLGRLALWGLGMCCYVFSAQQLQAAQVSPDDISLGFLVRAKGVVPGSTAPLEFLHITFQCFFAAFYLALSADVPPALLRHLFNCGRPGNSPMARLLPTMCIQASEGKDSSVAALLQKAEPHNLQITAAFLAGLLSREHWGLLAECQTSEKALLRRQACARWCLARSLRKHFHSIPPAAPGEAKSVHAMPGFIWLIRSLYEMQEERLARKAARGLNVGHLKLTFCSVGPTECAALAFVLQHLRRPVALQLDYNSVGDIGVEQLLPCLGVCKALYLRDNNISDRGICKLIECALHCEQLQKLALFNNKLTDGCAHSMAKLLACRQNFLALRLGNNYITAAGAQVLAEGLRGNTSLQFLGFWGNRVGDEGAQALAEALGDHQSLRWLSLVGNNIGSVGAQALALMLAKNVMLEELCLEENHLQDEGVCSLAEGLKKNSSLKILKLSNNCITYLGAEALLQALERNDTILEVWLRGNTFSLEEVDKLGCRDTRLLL

human PBMCs = test: IL-1β secretion from NOD2 ligand L18-MDP stimulated human PBMCs; format: cell-based; conditions: L-18 MDP 100 ng/ml, FIG. 19
Method: PBMCs were isolated from 3 donors of buffy coat (Blood Center of NY) using density gradient centrifugation. The PBMCs were resuspended in RPMI-1640 media supplemented with 10% FBS, 2 mM L-glutamine and 100 units/ml Penicillin and 100 μg/ml Streptomycin. The cells were plated in 96-well flat bottom plates at 250,000 cells/well. […] After 1 hr, the cells were stimulated with and without L-18 MDP at 100 ng/ml (Invivogen, San Diego, Calif.) or 1 ng/ml LPS (Sigma, St. Louis, Mo.). The cells were then incubated for 24 hrs at 37° C., 5% CO2. All compounds or ODNs were resuspended in endotoxin-free water. After 24 hrs, the supernatant was collected and analyzed for cytokine production. The supernatants were analyzed in duplicate for cytokine production in a magnetic multi-plex bead format using the MagPix instrument (Millipore, Billerica, Mass.). IL-1β was tested using a bead-based human cytokine/chemokine kit (Millipore, Cat# HCYTOMAG-60K-09). The manufacturer's procedures were followed accordingly. Data analysis was performed using Milliplex Analyst Software (Millipore).

[1] = system: CD19+ B-cells in human PBMCs; test: B-cell activation in human PBMCs, CD86 expression on CD19+ B-cells by FACS; format: cell-based; conditions: 24 h, FIG. 7
Method: PBMC were incubated on ice in the presence of Fc-Block (BD Pharmingen) for 20 minutes, washed, and incubated with antibodies specific for surface molecules or isotype-matched control mAbs. APC-Cy7 labeled anti-human CD19 mAb and PE-labeled anti-human CD86 mAb were purchased from BioLegend. The stained cells were then subjected to FACS (FACSCanto, BD Biosciences) using the FACSDiva software. FACS analysis was performed using FlowJo software. Single, viable cells in the CD19+ B-cells gates were used for analysis. The flow cytometric results are expressed as the percentage of CD86-expressing cells (FIG. 7A) as the mean fluorescence intensity (MFI) of CD86-expressing cells in each gate (FIG. 7B).

Compound | more efficient NF-κB activator than MDP (NOD2) | stimulation of IL-1β secretion from human PBMCs (human PBMCs) | B-cell activation (CD86 upregulation) [1]
CCCCCCCCCCCCCCCCCC(=O)OCC1OC(O)C(NC(C)=O)C(OC(C)C(=O)NC(C)C(=O)NC(CCC(=O)O)C(N)=O)C1O [L-18 MDP] | 10 fold | about 51 fold | –
ODN2137: 5′-TGCTGCTTTTGTGCTTTTGTGCTT-3′, fully PS, GC-containing (DNA dT*dG*dC*dT*dG*dC*dT*dT*dT*dT*dG*dT*dG*dC*dT*dT*dT*dT*dG*dT*dG*dC*dT*dT) | – | – | Stronger
